Assay results published in patent US6441026B1, “Antitumor compositions containing taxane derivatives” (priority 1995, dated 2002).
Where two headings read alike, the source gives them in different places.

Tests used:
C38 colon adenocarcinoma = conditions: optimum dose, i.v., days 21,25,29,33: Taxotere 22 mg/kg/inj; 5-fluorouracil 43.4; combination Taxotere 17.6 + 5-fluorouracil 27.0 (simultaneous)
From the text: (§1) log10 cells killed=T−C(days)/3.32×Td
(§2) The animals are autopsied when sacrificed.

Colon 51 = conditions: for Responses TFS (tumor free survivors): on day 122
Description: as §1, §2
(§3) The tumor model used to evaluate each drug combination was selected, in general, on the basis of its responsiveness to each of the agents when used as monotherapy. Using i.v. intermittent schedules, full dose response trials were conducted for each single agent and each combination.
(§4) In addition to the parameters described above, the combination toxicity index (CTI) was determined. […] Rep. 66: 1187-1200 (1982). […] It indicates the extent in host toxicity overlap.

[1] = tested on: MA13/c mammary adenocarcinoma; conditions: optimum dose, i.v.: Taxotere 15 mg/kg/inj days 14,17,20; cyclophosphamide 118 mg/kg day 14; combination Taxotere 7.5 + cyclophosphamide 90.0 mg/kg/inj
Description: This efficacy may be quantified, for example, by the log10 cells killed, which is determined according to the following formula:
A product is considered to be active if log10 cells killed is greater than or equal to 0.7. A product is considered to be very active if log10 cells killed is greater than 2.8.
The combination, used at its own maximum tolerated dose, in which each of the constituents will be present at a dose generally not exceeding its maximum tolerated dose, will manifest therapeutic synergy when the log10 cells killed is greater than the value of the log10 cells killed of the best constituent when it is administered alone.
The efficacy of the combinations on solid tumors may be determined experimentally in the following manner:
The animals subjected to the experiment, generally mice, are subcutaneously grafted bilaterally with 30 to 60 mg of a tumor fragment on day 0. The animals bearing tumors are mixed before being subjected to the various treatments and controls. […]
The tumors are measured 2 or 3 times a week until the tumor reaches approximately 2 g, or until the animal dies if this occurs before the tumor reaches 2 g. […]
The antitumor activity is determined in accordance with the different parameters recorded.

MA13/C = conditions: mouse, in vivo
Description: as §1, §2, §3, §4

MA 17/C = conditions: mouse, in vivo, iv, 40.3 mg/kg
Description: as §1, §2, §3, §4

[2] = CPT-11 trial: CPT-11 PO 42.5 mg/kg/inj 5,9 2x/d, acetocyclopropyl taxotere IV 21.1 days 5,9, combination 21.0 + 11.9 simult.
[3] = cisplatin trial, days 5,12: acetocyclopropyl taxotere 30.0 mg/kg/inj IV, cisplatinum 3.1, combination 13.6 + 2.0 simult.

Q: How did the log10 cells killed (C38 colon adenocarcinoma) turn out when O=c1[nH]cc(F)c(=O)[nH]1 [5-fluorouracil] was run?
A: 1.1

Q: Which “% bwl loss at nadir” value (Colon 51; [2]) does the source give for CCc1c2c(nc3ccc(OC(=O)N4CCC(N5CCCCC5)CC4)cc13)-c1cc3c(c(=O)n1C2)COC(=O)[C@]3(O)CC [CPT-11] here?
A: 3.7%

Q: And the T/C % (Colon 51; [2])?
A: 0%

Q: And the “day of nadir (body weight loss)” value (Colon 51; [2])?
A: (7) day

Q: What about the log cell kill (Colon 51; CPT-11 trial: CPT-11 PO 42.5 mg/kg/inj 5,9 2x/d, acetocyclopropyl taxotere IV 21.1 days 5,9, combination 21.0 + 11.9 simult., Td = 2 days) of the same molecule?
A: 1.1

Q: N.N.[Cl][Pt][Cl] [Cisplatinum, cisplatin] was tested. Which T/C % (Colon 51; [3]) did it give?
A: 0%

Q: What about the log cell kill (Colon 51; cisplatin trial, days 5,12: acetocyclopropyl taxotere 30.0 mg/kg/inj IV, cisplatinum 3.1, combination 13.6 + 2.0 simult., Td = 2.5 days) of the same molecule?
A: 2.7

Q: And the “Responses TFS (tumor free survivors)” value (Colon 51; [3])?
A: 0/7

Q: What about the “Responses TFS (tumor free survivors)” value (Colon 51; cisplatin trial, days 5,12: acetocyclopropyl taxotere 30.0 mg/kg/inj IV, cisplatinum 3.1, combination 13.6 + 2.0 simult., listed as cisplatin) of the same molecule?
A: no tumor free survivors

Q: For O=P1(N(CCCl)CCCl)NCCCO1 (centres unmarked) [Cylcophosphamide, cyclophosphamide], which log10 cells killed [1] is on record?
A: 1.3

Q: Which results are given for COc1cccc2c1C(=O)c1c(O)c3c(c(O)c1C2=O)C[C@@](O)(C(=O)CO)C[C@@H]3O[C@H]1C[C@H](N)[C@H](O)[C@H](C)O1 [Doxorubicin, doxorubicin]?
A: Responses CR (Complete Response) (MA13/C): 3/5; log cell kill (MA13/C): 3.0

Q: CCC1=C[C@@H]2CN(C1)Cc1c([nH]c3ccccc13)[C@@](C(=O)OC)(c1cc3c(cc1OC)N(C)[C@H]1[C@@](O)(C(=O)OC)[C@H](OC(C)=O)[C@]4(CC)C=CCN5CC[C@]31[C@@H]54)C2 [Navelbine] was tested. Which “Responses TFS (tumor free survivors)” value (MA 17/C) did it give?
A: 0/6

Q: What about the T/C % (MA 17/C) of the same molecule?
A: 0%

Q: And the log cell kill (MA 17/C)?
A: 5.5

Q: Which log10 cells killed [1] does the source give for CC(=O)O[C@@]12CO[C@@H]1C[C@H](O)[C@@]1(C)C(=O)[C@H](O)C3=C(C)[C@@H](OC(=O)[C@H](O)[C@@H](NC(=O)OC(C)(C)C)c4ccccc4)C[C@@](O)([C@@H](OC(=O)c4ccccc4)[C@H]21)C3(C)C [Taxotere] here?
A: 2.8

Q: What about the log10 cells killed (C38 colon adenocarcinoma) of the same molecule?
A: 1.4
